Experimental findings from patent US20220370440A1 (Lead Discovery Center GmbH, priority 2018, published 2022) are described below.

The pIC50 is the negative decadic logarithm of the IC50, by convention in mol/L.

pIC50: −log10 of the molar value. A value given as a limit tells only on which side of the number the result lay.

The target of data set [1] is EGFR Exon 20 INSNPH Ba/F3 (Homo sapiens, UniProt P00533, DUP771-773, cells depend on it). The data set can be described thus: EGFR Exon 20 INSNPH Ba/F3 CellTiter-Glo. To be noted: CellTiter-Glo, 72 h, read-out: EGFR Exon 20 INSNPH Ba/F3 CTG IC50. It is filed as cell-based. An outline of the steps: (§1)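 Using a 72 h viability readout, compound-treated Ba/F3 cells (pre-incubated 24 h after seeding) were lysed with CellTiter-Glo reagent and luminescence recorded. Potency was expressed as IC50 from a fitted dose–response curve.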
(ATP-based viability assays read luminescence as a measure of living cells.)

The next data set deals with EGFR T790ML858R (Homo sapiens, UniProt P00533, L858R/T790M). The data set can be described thus: EGFR T790ML858R Lance assay. Type of data set: biochemical. The protocol:
(§2) Inhibition is indicated as […] [nM] (“−”=not measured). Compounds having an activity designated as “A” provided an IC50≤100 nM; compounds having an activity designated as “B” provided an 100 nM<IC50≤500 nM; compounds having an activity designated as “C” provided an 500 nM<IC50≤1000 nM; compounds having an activity designated as “D” provided an 1000 nM<IC50≤100000 nM; and compounds having an activity designated as “E” provided an IC50>10000 nM.

For another data set, the system named is H1975. The data set can be described thus: H1975 CellTiter-Glo. Type of data set: cell-based. To be noted: Homo sapiens, NCI-H1975; 72 h compound incubation; read-out: H1975 CTG IC50. An outline of the steps: (§3)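 ATP-based luminescent viability read after 72 h compound exposure (DMSO vehicle, range of concentrations), cells plated 24 h beforehand at 37° C, 5% CO2. IC50 by dose-response fitting; 10 μM Staurosporine and DMSO controls, Z′-factor ≥0.5 required.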

The target of data set [2] is Her2 Exon 20 INSYVMA Ba/F3 (Homo sapiens, UniProt P04626, DUP772-775, cells depend on it). Description: Her2 Exon 20 INSYVMA Ba/F3 CellTiter-Glo. It is filed as cell-based. To be noted: CellTiter-Glo, 72 h, read-out: Her2 Exon 20 INSYVMA Ba/F3 CTG IC50. An outline of the steps: as §1
Chain of Her2 Exon 20 INSYVMA Ba/F3 (P04626 with tags, fused parts or gaps DUP772-775): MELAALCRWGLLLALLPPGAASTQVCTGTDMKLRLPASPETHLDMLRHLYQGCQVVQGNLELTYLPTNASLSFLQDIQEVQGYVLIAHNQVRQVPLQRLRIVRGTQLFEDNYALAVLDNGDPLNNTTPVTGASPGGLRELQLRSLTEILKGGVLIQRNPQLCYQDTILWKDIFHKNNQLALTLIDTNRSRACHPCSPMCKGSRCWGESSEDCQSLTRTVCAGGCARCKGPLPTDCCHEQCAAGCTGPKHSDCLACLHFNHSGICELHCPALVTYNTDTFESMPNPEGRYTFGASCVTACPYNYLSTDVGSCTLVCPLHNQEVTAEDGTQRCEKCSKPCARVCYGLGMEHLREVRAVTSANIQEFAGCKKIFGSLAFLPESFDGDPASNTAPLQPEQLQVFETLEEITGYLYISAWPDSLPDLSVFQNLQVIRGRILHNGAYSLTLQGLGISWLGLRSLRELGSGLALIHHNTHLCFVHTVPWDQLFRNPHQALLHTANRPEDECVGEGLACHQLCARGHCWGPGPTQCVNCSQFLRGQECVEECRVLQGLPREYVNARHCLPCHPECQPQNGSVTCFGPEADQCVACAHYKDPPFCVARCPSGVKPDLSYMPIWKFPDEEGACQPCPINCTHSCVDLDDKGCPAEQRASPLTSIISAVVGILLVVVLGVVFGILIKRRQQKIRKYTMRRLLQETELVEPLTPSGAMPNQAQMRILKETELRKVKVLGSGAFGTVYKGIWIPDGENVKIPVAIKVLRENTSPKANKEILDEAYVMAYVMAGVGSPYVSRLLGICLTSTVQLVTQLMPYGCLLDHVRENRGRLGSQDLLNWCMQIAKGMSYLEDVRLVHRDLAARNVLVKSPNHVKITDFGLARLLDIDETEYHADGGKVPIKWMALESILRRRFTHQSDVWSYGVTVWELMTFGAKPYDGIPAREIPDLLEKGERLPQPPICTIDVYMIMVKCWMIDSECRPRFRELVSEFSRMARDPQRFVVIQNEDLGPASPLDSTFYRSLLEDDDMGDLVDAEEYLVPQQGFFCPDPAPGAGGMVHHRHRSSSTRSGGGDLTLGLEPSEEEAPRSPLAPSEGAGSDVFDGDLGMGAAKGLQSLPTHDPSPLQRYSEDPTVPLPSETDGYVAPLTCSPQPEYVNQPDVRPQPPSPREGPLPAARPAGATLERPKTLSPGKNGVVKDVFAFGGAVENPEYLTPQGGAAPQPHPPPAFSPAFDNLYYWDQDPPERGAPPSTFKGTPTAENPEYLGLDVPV
Data set [3] is described as follows: Metabolic stability in mouse liver microsomes without cofactor NADPH. It is filed as in vitro ADME. To be noted: 3 μM test compound, mouse liver microsomes, without NADPH, 50 min, 37° C., LC-MS/MS. An outline of the steps:
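Cofactor-free incubation: no NADPH added to mouse liver microsomes, with compound at 3 μM and 37° C. Remaining parent was quantified by LC-MS/MS at time points up to 50 minutes to track depletion.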

The subject of another data set is A431. The data set can be described thus: A431 CellTiter-Glo. Type of data set: cell-based. As to conditions: Homo sapiens, A-431; 72 h compound incubation; read-out: A431 CTG IC50. The method, boiled down:
as §3

The next data set deals with EGFR wt (Homo sapiens, UniProt P00533). The data set can be described thus: EGFR wt Lance assay. Type of data set: biochemical. On the procedure: as §2
Chain of EGFR wt (P00533 25-1210): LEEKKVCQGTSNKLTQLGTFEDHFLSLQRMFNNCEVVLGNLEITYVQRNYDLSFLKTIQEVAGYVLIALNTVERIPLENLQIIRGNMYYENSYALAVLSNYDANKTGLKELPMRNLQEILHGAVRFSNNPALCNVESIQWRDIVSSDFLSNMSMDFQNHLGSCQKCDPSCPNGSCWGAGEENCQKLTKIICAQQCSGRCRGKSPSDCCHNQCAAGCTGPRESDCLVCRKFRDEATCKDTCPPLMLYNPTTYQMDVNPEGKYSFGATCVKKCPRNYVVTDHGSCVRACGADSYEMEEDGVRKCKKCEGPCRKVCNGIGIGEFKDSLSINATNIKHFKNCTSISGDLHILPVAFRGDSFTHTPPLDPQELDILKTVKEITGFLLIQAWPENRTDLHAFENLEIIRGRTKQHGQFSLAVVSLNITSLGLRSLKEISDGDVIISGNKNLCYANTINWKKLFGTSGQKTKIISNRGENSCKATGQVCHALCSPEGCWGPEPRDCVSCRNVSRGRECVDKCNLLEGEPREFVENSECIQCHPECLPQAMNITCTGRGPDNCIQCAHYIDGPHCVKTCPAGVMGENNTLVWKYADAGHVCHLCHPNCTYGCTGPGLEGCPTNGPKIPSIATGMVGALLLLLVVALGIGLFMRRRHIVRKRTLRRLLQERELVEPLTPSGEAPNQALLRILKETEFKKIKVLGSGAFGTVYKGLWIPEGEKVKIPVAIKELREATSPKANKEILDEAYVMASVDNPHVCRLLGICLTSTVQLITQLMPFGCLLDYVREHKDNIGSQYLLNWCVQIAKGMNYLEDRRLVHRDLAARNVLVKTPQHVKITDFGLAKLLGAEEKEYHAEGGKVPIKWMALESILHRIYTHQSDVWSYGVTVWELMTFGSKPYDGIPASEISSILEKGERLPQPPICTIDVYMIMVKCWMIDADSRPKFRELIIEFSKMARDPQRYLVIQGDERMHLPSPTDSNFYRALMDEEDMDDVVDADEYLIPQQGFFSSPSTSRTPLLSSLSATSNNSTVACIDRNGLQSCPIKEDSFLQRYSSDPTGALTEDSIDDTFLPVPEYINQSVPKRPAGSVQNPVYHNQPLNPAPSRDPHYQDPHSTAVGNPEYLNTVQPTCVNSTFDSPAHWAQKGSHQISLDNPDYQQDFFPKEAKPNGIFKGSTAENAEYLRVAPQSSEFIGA
The target in the next data set is T1, HER2 INS YVMA (Homo sapiens, UniProt P04626, INS775YVMA).
T1 construct: purchased DPF
T1 sequence (P04626 with tags, fused parts or gaps INS775YVMA): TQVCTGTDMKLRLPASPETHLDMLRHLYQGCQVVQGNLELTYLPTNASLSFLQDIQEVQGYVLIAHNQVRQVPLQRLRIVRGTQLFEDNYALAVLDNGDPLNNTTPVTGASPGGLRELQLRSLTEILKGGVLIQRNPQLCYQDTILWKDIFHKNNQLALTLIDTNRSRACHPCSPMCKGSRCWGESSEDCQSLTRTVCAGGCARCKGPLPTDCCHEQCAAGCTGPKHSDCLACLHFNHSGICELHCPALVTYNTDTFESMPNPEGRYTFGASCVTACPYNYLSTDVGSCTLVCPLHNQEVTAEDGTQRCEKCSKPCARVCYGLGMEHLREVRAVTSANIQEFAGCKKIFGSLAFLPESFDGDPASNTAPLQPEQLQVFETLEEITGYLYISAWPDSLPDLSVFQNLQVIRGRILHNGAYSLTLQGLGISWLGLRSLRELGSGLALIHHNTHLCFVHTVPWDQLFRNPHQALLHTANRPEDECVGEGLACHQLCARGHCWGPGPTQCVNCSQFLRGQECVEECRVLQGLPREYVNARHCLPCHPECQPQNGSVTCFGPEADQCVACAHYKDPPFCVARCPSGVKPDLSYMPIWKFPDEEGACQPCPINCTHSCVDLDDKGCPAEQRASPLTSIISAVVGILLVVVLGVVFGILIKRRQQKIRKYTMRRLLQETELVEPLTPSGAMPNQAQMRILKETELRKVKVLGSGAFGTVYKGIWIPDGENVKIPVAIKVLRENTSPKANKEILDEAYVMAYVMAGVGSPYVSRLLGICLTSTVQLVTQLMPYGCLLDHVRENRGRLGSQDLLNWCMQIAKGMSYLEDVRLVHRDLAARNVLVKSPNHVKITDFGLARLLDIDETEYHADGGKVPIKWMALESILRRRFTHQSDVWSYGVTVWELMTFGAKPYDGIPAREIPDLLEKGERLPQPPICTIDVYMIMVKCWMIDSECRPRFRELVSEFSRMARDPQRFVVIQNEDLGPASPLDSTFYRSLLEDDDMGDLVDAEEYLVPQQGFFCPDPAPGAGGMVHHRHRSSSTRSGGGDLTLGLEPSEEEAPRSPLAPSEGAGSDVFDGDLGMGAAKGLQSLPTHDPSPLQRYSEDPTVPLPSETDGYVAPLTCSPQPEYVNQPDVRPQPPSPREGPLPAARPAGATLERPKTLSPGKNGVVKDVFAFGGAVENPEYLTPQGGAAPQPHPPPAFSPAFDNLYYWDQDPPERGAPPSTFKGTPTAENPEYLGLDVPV
The data set can be described thus: Lance Kinase Activity Assay, HER2 INS YVMA (Her2 Exon 20 INSYVMA Lance). Type of data set: biochemical. To be noted: biochemical Lance assay. An outline of the steps:
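IC50 was fitted to sigmoidal curves of TR-FRET signal (665 and 615 nm emission after 340 nm excitation) from an Eu anti-phospho antibody binding the phosphorylated ULight peptide. The ATP-started reaction ran 1 h at RT and was then quenched with 10 mM EDTA plus antibody for a further 1 h. Compounds were tested as 8-point, 3-fold dilutions.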

Chain of EGFR T790ML858R (P00533 25-1210 T790M/L858R): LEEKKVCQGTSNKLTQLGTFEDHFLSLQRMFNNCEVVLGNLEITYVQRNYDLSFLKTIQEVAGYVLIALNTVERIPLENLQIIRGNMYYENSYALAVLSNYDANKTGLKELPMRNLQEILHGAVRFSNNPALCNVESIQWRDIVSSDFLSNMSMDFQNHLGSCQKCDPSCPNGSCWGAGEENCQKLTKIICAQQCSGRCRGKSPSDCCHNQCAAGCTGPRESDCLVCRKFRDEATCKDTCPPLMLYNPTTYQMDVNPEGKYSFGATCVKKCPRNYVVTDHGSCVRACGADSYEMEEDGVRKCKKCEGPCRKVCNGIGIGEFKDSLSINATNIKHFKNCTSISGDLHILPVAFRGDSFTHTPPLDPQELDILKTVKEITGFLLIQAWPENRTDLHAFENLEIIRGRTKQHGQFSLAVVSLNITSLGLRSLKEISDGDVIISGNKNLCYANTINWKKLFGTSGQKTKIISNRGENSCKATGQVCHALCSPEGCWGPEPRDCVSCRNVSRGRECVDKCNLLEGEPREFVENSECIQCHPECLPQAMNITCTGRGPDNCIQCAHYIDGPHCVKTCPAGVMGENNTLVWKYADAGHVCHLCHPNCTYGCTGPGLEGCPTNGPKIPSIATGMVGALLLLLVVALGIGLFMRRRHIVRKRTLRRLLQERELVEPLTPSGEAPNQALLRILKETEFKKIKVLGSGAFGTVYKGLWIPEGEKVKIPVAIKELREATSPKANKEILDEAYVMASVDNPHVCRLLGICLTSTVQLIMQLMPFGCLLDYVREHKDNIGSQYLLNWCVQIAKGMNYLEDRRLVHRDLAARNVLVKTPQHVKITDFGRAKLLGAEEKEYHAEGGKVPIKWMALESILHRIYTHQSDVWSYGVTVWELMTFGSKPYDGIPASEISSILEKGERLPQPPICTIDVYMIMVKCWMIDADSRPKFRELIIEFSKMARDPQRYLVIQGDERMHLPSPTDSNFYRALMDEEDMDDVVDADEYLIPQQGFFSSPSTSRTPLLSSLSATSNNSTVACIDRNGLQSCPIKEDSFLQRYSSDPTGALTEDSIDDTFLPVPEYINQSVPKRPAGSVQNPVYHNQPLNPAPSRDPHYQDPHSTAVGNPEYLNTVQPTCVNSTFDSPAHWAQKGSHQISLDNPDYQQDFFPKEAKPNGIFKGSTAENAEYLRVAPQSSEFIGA

As for `C=CC(=O)Nc1cc(-c2c(-c3ccc(N4CCN(C)CC4)cc3)[nH]c3ncc(C(=O)OC4CC4)cc23)ccc1C` [Example 138, cyclopropyl 3-(3-acrylamido-4-methylphenyl)-2-(4-(4-methylpiperazin-1-yl)phenyl)-1H-pyrrolo[2,3-b]pyridine-5-carboxylate], the GI50 in data set [1] and in data set [2] was 100 to 500 nM each time. In addition, the pIC50 against EGFR T790ML858R is at least 7.00; with H1975, at least 7.00; with A431, 4.00 to 6.00; at EGFR wt, at least 7.00; against HER2 INS YVMA, at least 7.00. In addition, the “Stability in presence of mouse liver microsomes without cofactor NADPH [% remaining after 50 min]” value in data set [3] is given as over 99 % remaining after 50 min.

Consider `C=CC(=O)Nc1cc(-c2c(-c3ccc(N4CCN(C)CC4)c(F)c3)[nH]c3nccc(Cl)c23)ccc1C` [Example 42, N-(5-(4-chloro-2-(3-fluoro-4-(4-methylpiperazin-1-yl)phenyl)-1H-pyrrolo[2,3-b]pyridin-3-yl)-2-methylphenyl)acrylamide], for which the GI50 in data set [1] and in data set [2] was 100 to 500 nM in each case. Further, the pIC50 against EGFR T790ML858R was at least 7.00; with H1975, at least 7.00; in the data set on A431, 6.30 to 7.00; against EGFR wt it was at least 7.00; against HER2 INS YVMA, at least 7.00. Further, the “Stability in presence of mouse liver microsomes without cofactor NADPH [% remaining after 50 min]” value in data set [3] was over 99 % remaining after 50 min.

As for `C=CC(=O)N1CCOc2ccc(-c3c(-c4ccc(N(C)CCN(C)C)cc4)[nH]c4nccc(Cl)c34)cc21` [Example 84, 1-(6-(4-chloro-2-(4-((2-(dimethylamino)ethyl)(methyl)amino)phenyl)-1H-pyrrolo[2,3-b]pyridin-3-yl)-2H-benzo[b][1,4]oxazin-4(3H)-yl)prop-2-en-1-one], the GI50 in data set [1] and in data set [2] was 100 to 500 nM throughout. Besides, the pIC50 against EGFR T790ML858R is at least 7.00; with H1975, 6.30 to 7.00; in the data set on A431 it was 6.00 to 6.30; against EGFR wt, at least 7.00; against HER2 INS YVMA, at least 7.00. Moreover, in data set [3], the “Stability in presence of mouse liver microsomes without cofactor NADPH [% remaining after 50 min]” value was 94 % remaining after 50 min.

Consider `C=CC(=O)N1CCCc2ccc(-c3c(-c4cccc(CN5CCN(C)CC5)c4)[nH]c4nccc(Cl)c34)cc21` [Example 95, 1-(7-(4-chloro-2-(3-((4-methylpiperazin-1-yl)methyl)phenyl)-1H-pyrrolo[2,3-b]pyridin-3-yl)-3,4-dihydroquinolin-1(2H)-yl)prop-2-en-1-one], for which the GI50 in data set [1] and in data set [2] was 1000 to 10000 nM in each case. Further, the pIC50 at EGFR T790ML858R is at least 7.00; with H1975 it was 6.00 to 6.30; with A431, 4.00 to 6.00; on EGFR wt, at least 7.00; at HER2 INS YVMA, at least 7.00. Moreover, the “Stability in presence of mouse liver microsomes without cofactor NADPH [% remaining after 50 min]” value in data set [3] is listed as over 99 % remaining after 50 min.

For `C=CC(=O)Nc1cc(-c2c(-c3ccc(N4CCN(C)CC4)nc3)[nH]c3nccc(Cl)c23)ccc1C` [Example 19, N-(5-(4-chloro-2-(6-(4-methylpiperazin-1-yl)pyridin-3-yl)-1H-pyrrolo[2,3-b]pyridin-3-yl)-2-methylphenyl)acrylamide], the GI50 in data set [1] and in data set [2] was 500 to 1000 nM throughout. Further, the negative logarithm of the IC50 (pIC50) against EGFR T790ML858R was at least 7.00; in the data set with H1975, 6.30 to 7.00; in the data set on A431 it was 4.00 to 6.00; against EGFR wt it was at least 7.00; at HER2 INS YVMA, 6.30 to 7.00. The “Stability in presence of mouse liver microsomes without cofactor NADPH [% remaining after 50 min]” value in data set [3] is over 99 % remaining after 50 min.

For `C=CC(=O)Nc1cc(-c2c(-c3ccc(N4CCN(C)CC4)cc3)[nH]c3ncc(C#N)cc23)ccc1C` [Example 97, N-(5-(5-cyano-2-(4-(4-methylpiperazin-1-yl)phenyl)-1H-pyrrolo[2,3-b]pyridin-3-yl)-2-methylphenyl)acrylamide 2,2,2-trifluoroacetate], the figures for the GI50 in data set [1] and in data set [2] were at most 100 nM and 100 to 500 nM, respectively. Moreover, the pIC50 is at least 7.00 on EGFR T790ML858R; at least 7.00 in the data set with H1975; 6.30 to 7.00 with A431; at least 7.00 at EGFR wt; at least 7.00 at HER2 INS YVMA. Moreover, the “Stability in presence of mouse liver microsomes without cofactor NADPH [% remaining after 50 min]” value in data set [3] is reported as over 99 % remaining after 50 min.
